Patent publication US8299093B2, “Small molecule inhibitors of retroviral assembly and maturation” (New York Blood Center, Inc., priority 2008, dated 2012)
Read-outs that look alike come from different tables or passages of the source.

Columns and labels:
HIV-1 [1] = conditions: cited from earlier work
HIV-1 capsid = HIV-1 capsid (Human immunodeficiency virus type 1 group M subtype B, UniProt P04591); conditions: read-out: Binding affinity (Kd); cited from earlier work
HIV-1 BCF02 = test: Antiviral activity (p24) against primary isolate BCF02 in PBMC; format: cell-based; conditions: Human immunodeficiency virus 1, BCF02, Group (O), R5, primary isolate
Method: (§1) Peripheral blood mononuclear cells (PBMCs) were isolated from the blood of healthy donors by standard density gradient centrifugation using Histopaque-1077 (Sigma). The cells were cultured at 37° C. for 2 hours. Nonadherent cells were collected and resuspended at 5×10^6 cells/ml RPMI-1640 medium containing 10% FBS, 5 μg/ml PHA, and 100 U/ml IL-2 (Sigma), followed by incubation at 37° C. for 3 days. The PHA-stimulated cells (5×10^4 cells/well) were infected with primary HIV-1 isolates at 500 TCID50 (0.01 MOI) in the absence or presence of small molecule inhibitor at graded concentrations. Culture media were changed every 3 days and replaced with fresh media containing freshly prepared inhibitor. The supernatants were collected 7 days post-infection and tested for p24 antigen by ELISA. The inhibition of p24 production in PBMC was measured over a range of concentrations and the concentration required to inhibit 50% (IC50) of the p24 production was calculated by the GraphPad Prism software.
(§2) The molecules in Tables 3 include the calculated IC50 values and use “A1” to denote IC50<10 μM and “B1” to denote IC50>10 μM and “C1” to denote CC50<50 μM and “D1” to denote […].

HIV-1 IIIB = test: Antiviral activity (p24) against HIV-1 IIIB in MT-2; format: cell-based; conditions: Human immunodeficiency virus 1, subtype B, MT-2, X4, laboratory strain
Method: (§3) AZT was used as a positive control in the infectivity assays. In brief, 1×10^4 MT-2 cells (lymphocytes) were infected with HIV-1 at 100 TCID50 (50% tissue culture infective dose, 0.01 MOI [multiplicity of infection]) in 200 μL RPMI 1640 medium containing 10% FBS in the presence or absence of small molecules at graded concentrations overnight. The culture supernatants were then removed and fresh media containing freshly prepared test compounds were added. On the fourth day post-infection, 100 μL of culture supernatants were collected from each well, mixed with equal volume of 5% TRITON X-100® and tested for p24 antigen by ELISA®. The IC50 values were calculated by the GraphPad Prism software (GraphPad Software®, Inc.) and the values were classified as IC50<10 μM and IC50>10 μM.
as §2

HIV-1 93IN101 = test: Antiviral activity (p24) against primary isolate 93IN101 in PBMC; format: cell-based; conditions: Human immunodeficiency virus 1, 93IN101, subtype C, R5, primary isolate
Method: as §1, §2

[2] = XTT cytotoxicity assay in MT-2 cells; format: cell-based; conditions: human; for CC50 at 4 days: MT-2 cells; for CC50: cell type not given
Method: (§4) Briefly, for MT-2 cells, 100 μL of small molecule at graded concentrations was added to an equal volume of cells (5×10^4 cells/ml) in 96-well plates followed by incubation at 37° C. for 4 days, which ran parallel to the neutralization assay in MT-2 (except medium was added instead of virus). In the case of PBMC, 2.5×10^5 cells/mL were used and the cytotoxicity was measured after 7 days. After addition of XTT (PolySciences, Inc.), the soluble intracellular formazan was quantitated calorimetrically at 450 nm 4 hours later with a reference at 620 nm. The CC50 values were calculated.

HIV-1 92US657 = test: Antiviral activity (p24) against primary isolate 92US657 in PBMC; format: cell-based; conditions: Human immunodeficiency virus 1, 92US657, subtype B, R5, primary isolate
Method: as §1, §2

HIV-1 [3] = test: Inhibition of HIV-1 infectivity (p24 ELISA) in MT-2 cells, laboratory-adapted HIV-1 strains; format: cell-based; conditions: for IC50: Human immunodeficiency virus 1, MT2, 96 h, MT-2 cells, p24 ELISA day 4; for Activity against a broad range of HIV-1 laboratory-adapted and primary isolates: including one RT-inhibitor-resistant and one protease-inhibitor-resistant isolate (summary of Table 3)
Method: as §3, with “ELISA®.” for “ELISA®. The IC50 values were calculated by the GraphPad Prism software (GraphPad Software®, Inc.) and the values were classified as IC50<10 μM and IC50>10 μM.”

HIV-1 AZT-R = test: Antiviral activity (p24) against RT-resistant isolate AZT-R in MT-2; format: cell-based; conditions: Human immunodeficiency virus 1
Method: as §3, §2

HIV-1 SF2 = test: Antiviral activity (p24) against HIV-1 SF2 in MT-2; format: cell-based; conditions: Human immunodeficiency virus 1; SF2, subtype B, MT-2, R5X4, laboratory strain
Method: as §3, §2

HIV-1 RU570 = test: Antiviral activity (p24) against primary isolate RU570 in PBMC; format: cell-based; conditions: Human immunodeficiency virus 1, RU570, subtype G, R5, primary isolate
Method: as §1, §2

HIV-1 BaL = test: Antiviral activity (p24) against HIV-1 BaL in PBMC; format: cell-based; conditions: Human immunodeficiency virus 1, subtype B, R5, laboratory strain
Method: as §3, §1, §2

HIV-1 RF = test: Antiviral activity (p24) against HIV-1 RF in MT-2; format: cell-based; conditions: Human immunodeficiency virus 1, subtype B, MT-2, X4, laboratory strain
Method: as §3, §2

HIV-1 MN = test: Antiviral activity (p24) against HIV-1 MN in MT-2; format: cell-based; conditions: Human immunodeficiency virus 1, subtype B, MT-2, X4, laboratory strain
Method: as §3, §2

[4] = XTT cytotoxicity assay in PBMC; format: cell-based; conditions: human
Method: as §4, with “Cytotoxicity of small molecules in cultures with MT-2 cells and PBMC was measured by the tetrazolium hydroxide XTT (sodium 3′-(1-(phenylamino)-carbonyl)-3,4-tetrazolium-bis(4-methoxy-6-nitro) benzenesulfonic acid hydrate) cytotoxicity assay, as previously described (Jiang et al., 2004). Briefly,” for “Briefly,”

HIV-1 [5] = conditions: cited from earlier work; remark: listed apart in the source
[6] = system: Gag-Pol expressing 293 T cells; test: Cell-based mature particle formation (VLP), electron microscopy of Gag-Pol transfected 293 T cells; parameters: species or system HIV-1
Method: In the cell-based system, the impact of NYAD-S6 on virus-like particle (VLP) release and morphology was analyzed by electron microscopy one day post-transfection with plasmid encoding Gag-Pol. Forty thousand 293 T cells were seeded per well in a 6-well plate on the day before transfection. […] The cells were then fixed in 3% glutaraldehyde in 100 mM sodium cacodylate for 1 hour and post-fixed in 1% OsO4 in 100 mM sodium cacodylate for another 1 hour. Specimens were then dehydrated through graded series of ethanol solutions and embedded in EPON® media. After staining with uranyl acetate and lead citrate, ultra-thin sections were examined under a Philips EM410 electron microscope.
In the case of untreated cells transfected with a Gag-Pol expression vector, a large number of mature particles containing electron-dense core structures were found (FIG. 2A).

HIV-1RF/L-323-12-3 = test: Antiviral activity (p24) against protease resistant isolate HIV-1RF/L-323-12-3 in MT-2; format: cell-based; conditions: Human immunodeficiency virus 1
Method: as §3, §2

HIV-1 93Br020 = test: Antiviral activity (p24) against primary isolate 93Br020 in PBMC; format: cell-based; conditions: Human immunodeficiency virus 1, 93Br020, subtype F, R5X4, primary isolate
Method: as §1, §2

[7] = Table 2, formula II, read-out: CC50
[8] = Table 1, formula I, read-out: CC50 (concentration that causes 50% cytotoxicity)
[9] = read-out: IC50 (concentration that provides 50% inhibition of HIV-1 p24), Table 1, formula I

Cc1ccc(NC(=O)NCCSCc2ccc(CN(C)C)o2)cc1Cl [CAP-1]
HIV-1 inhibition in viral infectivity assays (HIV-1 [1]): dose-dependent HIV-1 inhibition | Kd (HIV-1 capsid): ~800 µM

Cc1cc(=O)n2c3ccccc3n(CC(O)CN3CCN(C(c4ccccc4)c4ccccc4)CC3)c2c1C#N (stereo not shown) [NYAD-S17]
IC50 (HIV-1 BCF02): < 10 µM | IC50 (HIV-1 IIIB): < 10 µM | IC50 (HIV-1 93IN101): < 10 µM | CC50 at 4 days [2]: < 50 µM | CC50 [2, 7]: > 10 µM | IC50 (HIV-1 92US657): < 10 µM | IC50 (HIV-1 [3]; Table 2, formula II): < 10 µM | Activity against a broad range of HIV-1 laboratory-adapted and primary isolates (HIV-1 [3]): consistently potent activity | IC50 (HIV-1 AZT-R): < 10 µM | IC50 (HIV-1 SF2): < 10 µM | IC50 (HIV-1 RU570): < 10 µM | IC50 (HIV-1 BaL): < 10 µM | IC50 (HIV-1 RF): < 10 µM | IC50 (HIV-1 MN): < 10 µM | CC50 at 7 days [4]: < 50 µM

C=C(C)[C@@H]1CC[C@]2(C(=O)O)CC[C@]3(C)[C@H](CC[C@@H]4[C@@]5(C)CC[C@H](OC(=O)CC(C)(C)C(=O)O)C(C)(C)[C@@H]5CC[C@]43C)[C@@H]12 [PA-457]
Antiviral potency in cell culture (HIV-1 [5]): low nM

Cc1ccc2[nH]c(=O)c(CN(Cc3ccco3)C(=O)c3ccc(Cl)cc3)cc2c1 [NYAD-S6]
Formation of electron-dense core structures ([6]; 0.4 μM): markedly inhibited | Formation of electron-dense core structures ([6]; 2 μM): markedly inhibited | Formation of electron-dense core structures ([6]; 10 μM): markedly inhibited | Mature particle formation ([6]; FIGS. 2A-D, 0.4, 2 and 10 μM vs control): dramatic decrease in mature particle formation | IC50 (HIV-1 BCF02): < 10 µM | IC50 (HIV-1RF/L-323-12-3): < 10 µM | IC50 (HIV-1 IIIB): < 10 µM | IC50 (HIV-1 93IN101): < 10 µM | CC50 at 4 days [2]: > 50 µM | CC50 [2, 8]: > 10 µM | IC50 (HIV-1 92US657): < 10 µM | IC50 (HIV-1 93Br020): < 10 µM | IC50 (HIV-1 [3]; [9]): < 10 µM | Activity against a broad range of HIV-1 laboratory-adapted and primary isolates (HIV-1 [3]): consistently potent activity | IC50 (HIV-1 AZT-R): < 10 µM | IC50 (HIV-1 SF2): < 10 µM | IC50 (HIV-1 RU570): < 10 µM | IC50 (HIV-1 BaL): < 10 µM | IC50 (HIV-1 RF): < 10 µM | IC50 (HIV-1 MN): < 10 µM | CC50 at 7 days [4]: > 50 µM

Cc1cc(=O)n2c3ccccc3n(CC(O)CNc3ccc(F)cc3)c2c1C#N (stereo not shown) [NYAD-S8]
IC50 (HIV-1 BCF02): > 10 µM | IC50 (HIV-1RF/L-323-12-3): < 10 µM | IC50 (HIV-1 IIIB): > 10 µM | IC50 (HIV-1 93IN101): < 10 µM | CC50 at 4 days [2]: > 50 µM | CC50 [2, 7]: > 10 µM | IC50 (HIV-1 92US657): < 10 µM | IC50 (HIV-1 93Br020): < 10 µM | IC50 (HIV-1 [3]; Table 2, formula II): > 10 µM | Activity against a broad range of HIV-1 laboratory-adapted and primary isolates (HIV-1 [3]): consistently potent activity | IC50 (HIV-1 AZT-R): < 10 µM | IC50 (HIV-1 SF2): < 10 µM | IC50 (HIV-1 RU570): < 10 µM | IC50 (HIV-1 BaL): < 10 µM | IC50 (HIV-1 RF): < 10 µM | IC50 (HIV-1 MN): < 10 µM | CC50 at 7 days [4]: > 50 µM

Cc1cccc2cc(CN(Cc3ccccc3)C(=O)c3ccco3)c(=O)[nH]c12 [NYAD-S22]
CC50 [2, 8]: > 10 µM | IC50 (HIV-1 [3]; [9]): > 10 µM

Cc1ccc2[nH]c(=O)c(CN(Cc3ccco3)S(=O)(=O)c3ccc(Cl)cc3)cc2c1 [NYAD-S6-4]
CC50 [2, 8]: > 10 µM | IC50 (HIV-1 [3]; [9]): < 10 µM

Cc1ccc2cc(CN(Cc3ccccc3)C(=O)c3ccco3)c(=O)[nH]c2c1C [NYAD-S48]
CC50 [2, 8]: > 10 µM | IC50 (HIV-1 [3]; [9]): > 10 µM

Cc1cc(=O)n2c3ccccc3n(CC(O)CN3CCN(CCO)CC3)c2c1C#N (stereo not shown) [NYAD-S18]
CC50 [2, 7]: > 10 µM | IC50 (HIV-1 [3]; Table 2, formula II): > 10 µM

Cc1cc(C)cc(NCC(O)Cn2c3ccccc3n3c(=O)cc(C)c(C#N)c23)c1 (stereo not shown) [NYAD-S58]
CC50 [2, 7]: > 10 µM | IC50 (HIV-1 [3]; Table 2, formula II): > 10 µM

Cc1ccc2[nH]c(=O)c(CN(Cc3ccco3)C(=O)c3ccc(F)c(C)c3)cc2c1 [NYAD-S6-19]
CC50 [2, 8]: > 10 µM | IC50 (HIV-1 [3]; [9]): < 10 µM

Cc1ccc(CN(Cc2cc3cc(C)ccc3[nH]c2=O)C(=O)c2ccco2)cc1 [NYAD-S121]
CC50 [2, 8]: > 10 µM | IC50 (HIV-1 [3]; [9]): < 10 µM
